Measured values taken from ChEMBL document CHEMBL2046429, “Synthesis and biological evaluation of N-aryl salicylamides with a hydroxamic acid moiety at 5-position as novel HDAC-EGFR dual inhibitors” (Bioorg Med Chem, 2012).

How the values were obtained:
[1] = system: HL-60; experiment: Antiproliferative activity against human HL60 cells after 48 hrs by MTT assay; type: functional, cell-based; conditions: HL-60, 48 h
[2] = system: A-431; experiment: Antiproliferative activity against human A431 cells after 48 hrs by MTT assay; type: functional, cell-based; conditions: A-431, 48 h
[3] = target: Histone deacetylase; experiment: Inhibition of HDAC derived from human HeLa cell nuclear extract using Boc-Lys(acetyl)-AMC as substrate incubated for 5 mins prior to substrate addition measured after 30 mins by fluorimetry; type: protein assay
[4] = target: Epidermal growth factor receptor (Homo sapiens, UniProt P00533); experiment: Inhibition of EGFR derived from human A431 cell membrane assessed as inhibition of poly-Glu-Tyr phosphorylation after 30 mins by ELISA assay; type: cell-based, A-431
[5] = system: A549; experiment: Antiproliferative activity against human A549 cells after 48 hrs by MTT assay; type: functional, cell-based; conditions: A549, 48 h

Sequence of Epidermal growth factor receptor (P00533 whole entry): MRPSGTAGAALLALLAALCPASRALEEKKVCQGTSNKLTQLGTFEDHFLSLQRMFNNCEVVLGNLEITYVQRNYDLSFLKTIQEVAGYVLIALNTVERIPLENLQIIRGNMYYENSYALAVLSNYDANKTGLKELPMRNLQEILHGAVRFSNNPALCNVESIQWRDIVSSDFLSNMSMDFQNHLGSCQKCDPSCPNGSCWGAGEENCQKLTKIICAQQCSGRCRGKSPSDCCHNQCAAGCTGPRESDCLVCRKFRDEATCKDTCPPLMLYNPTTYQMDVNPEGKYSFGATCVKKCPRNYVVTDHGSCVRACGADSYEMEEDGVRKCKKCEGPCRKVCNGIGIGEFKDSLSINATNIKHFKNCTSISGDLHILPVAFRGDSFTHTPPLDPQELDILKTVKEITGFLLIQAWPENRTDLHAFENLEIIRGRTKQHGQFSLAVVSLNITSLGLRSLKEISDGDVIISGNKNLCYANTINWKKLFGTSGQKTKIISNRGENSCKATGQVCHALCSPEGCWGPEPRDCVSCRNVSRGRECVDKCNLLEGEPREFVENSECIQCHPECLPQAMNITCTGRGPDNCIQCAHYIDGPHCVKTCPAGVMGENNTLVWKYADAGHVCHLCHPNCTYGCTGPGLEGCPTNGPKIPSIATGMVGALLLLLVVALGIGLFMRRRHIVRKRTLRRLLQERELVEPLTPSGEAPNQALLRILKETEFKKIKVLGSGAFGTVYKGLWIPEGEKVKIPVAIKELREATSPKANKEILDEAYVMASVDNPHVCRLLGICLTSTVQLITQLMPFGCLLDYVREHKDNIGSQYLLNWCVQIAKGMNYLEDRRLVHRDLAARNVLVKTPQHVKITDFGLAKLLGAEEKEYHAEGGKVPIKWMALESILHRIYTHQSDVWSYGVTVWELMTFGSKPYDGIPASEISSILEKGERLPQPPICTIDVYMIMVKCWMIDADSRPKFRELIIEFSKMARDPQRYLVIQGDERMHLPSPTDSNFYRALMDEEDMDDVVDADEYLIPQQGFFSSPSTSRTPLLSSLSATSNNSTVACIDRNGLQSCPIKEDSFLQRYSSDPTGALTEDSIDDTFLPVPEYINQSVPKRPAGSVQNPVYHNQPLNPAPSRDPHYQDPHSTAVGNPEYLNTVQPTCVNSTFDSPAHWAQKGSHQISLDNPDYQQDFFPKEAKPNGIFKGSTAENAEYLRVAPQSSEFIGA

Row | Structure (SMILES) | IC50 [1] [µM] | IC50 [2] [µM] | IC50 [3] [µM] | IC50 [4] [µM] | IC50 [5] [µM]
1 | O=C(CCCCCC(=O)Nc1ccc(O)c(C(=O)Nc2ccccc2)c1)NO | 20.3 | 5.85 | 1.89 | 2.34 | 14.6
2 | O=C(CCCCCC(=O)Nc1ccc(O)c(C(=O)Nc2cccc(F)c2)c1)NO | > 100 | 4.28 | 3.59 | 1.41 | 37.2
3 | O=C(CCCCCC(=O)Nc1ccc(O)c(C(=O)Nc2ccc(F)c(F)c2)c1)NO | > 100 | 4.01 | 6.02 | 2.22 | 70.1
4 | O=C(CCCCCC(=O)Nc1ccc(O)c(C(=O)Nc2ccc(F)c(Cl)c2)c1)NO | > 100 | 3.48 | 3.02 | 3.53 | 21.1
5 | O=C(CCCCCC(=O)Nc1ccc(O)c(C(=O)Nc2cccc(C(F)(F)F)c2)c1)NO | > 100 | 2.75 | 3.19 | 4.2 | 25.7
6 | C#Cc1cccc(NC(=O)c2cc(NC(=O)CCCCCC(=O)NO)ccc2O)c1 | > 100 | 5.75 | 4.09 | 3.31 | 76.2
7 | O=C(CCCCCC(=O)Nc1ccc(O)c(C(=O)Nc2ccc(Cl)c(Cl)c2)c1)NO | > 100 | 3.8 | 3.65 | 1.8 | 17.8
8 | O=C(CCCCCC(=O)Nc1ccc(O)c(C(=O)Nc2ccc(Cl)c(C(F)(F)F)c2)c1)NO | > 100 | 4.14 | 3.48 | 1.41 | 24.1
9 | O=C(CCCCCC(=O)Nc1ccc(O)c(C(=O)Nc2ccc(OCc3cccc(F)c3)c(Cl)c2)c1)NO | > 100 | 2.6 | 3.01 | 1.1 | 12.4
10 | C#Cc1cccc(NC(=O)c2cc(NC(=O)CCCCCCC(=O)NO)ccc2O)c1 | > 100 | 6.11 | 2.03 | 2.25 | 43.6
11 | COc1cc(O)c(C(=O)Nc2ccc(F)c(Cl)c2)cc1NC(=O)CCCCCC(=O)NO |  |  | 1.09 |  | 
12 | C#Cc1cccc(NC(=O)c2cc(NC(=O)CCCCCC(=O)NO)c(OC)cc2O)c1 | 28.6 | 4.68 | 1.86 | 1.12 | 18.4
13 | C#Cc1cccc(NC(=O)c2cccc(NC(=O)CCCCCC(=O)NO)c2)c1 | > 100 | 7.08 | 3.27 | 6.17 | 37.6
14 | C#Cc1cccc(NC(=O)c2cc(NC(=O)CCCCCC(=O)NO)ccc2OC)c1 | 7.1 | 4.2 | 0.56 | 5.16 | 40.7
15 | C#Cc1cccc(NC(=O)c2cc(OCCCCCCC(=O)NO)ccc2O)c1 | 30.9 | 1.88 | 1.21 | 0.9 | 15.5
